Results taken from publication PMC10388794 (Journal of Enzyme Inhibition and Medicinal Chemistry, 2023).

Experiments:
[1] = target: recombinant human AChE (hAChE) (Homo sapiens, UniProt P22303); assay: hAChE inhibition assay; format: biochemical; conditions: read-out: hAChE inhibition rate % at 20 µM
[2] = tested on: Aβ1–42-induced cognitive impairment in mice; assay: Morris water maze in Aβ1–42-induced cognitive impairment model; format: in vivo; conditions: T14-A24 10 mg/kg po, donepezil 15 mg/kg po

Chain of recombinant human AChE (hAChE) (P22303 32-614): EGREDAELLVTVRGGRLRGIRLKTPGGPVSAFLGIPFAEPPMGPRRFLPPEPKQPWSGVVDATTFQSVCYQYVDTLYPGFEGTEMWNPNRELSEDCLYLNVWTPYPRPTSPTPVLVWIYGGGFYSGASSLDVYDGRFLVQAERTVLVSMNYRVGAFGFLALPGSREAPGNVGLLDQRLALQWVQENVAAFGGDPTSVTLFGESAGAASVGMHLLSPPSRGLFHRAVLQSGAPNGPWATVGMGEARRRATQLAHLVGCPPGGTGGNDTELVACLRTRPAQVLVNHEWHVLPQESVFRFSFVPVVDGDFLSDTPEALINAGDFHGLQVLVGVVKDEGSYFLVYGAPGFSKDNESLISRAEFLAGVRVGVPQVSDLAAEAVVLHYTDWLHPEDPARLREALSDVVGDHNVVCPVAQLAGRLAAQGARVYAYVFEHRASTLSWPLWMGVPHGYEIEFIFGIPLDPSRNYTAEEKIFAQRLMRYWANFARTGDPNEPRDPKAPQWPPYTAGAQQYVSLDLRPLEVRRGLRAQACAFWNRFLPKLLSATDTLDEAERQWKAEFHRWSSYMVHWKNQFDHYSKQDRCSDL

SMILES: CCN(C)C(=O)Oc1cccc([C@H](C)N(C)C)c1 [Rivastigmine]
- inhibition at 20 µM [1]: 16.5 ± 0.8%

SMILES: COc1cc2c(cc1OC)C(=O)C(CC1CCN(Cc3ccccc3)CC1)C2 (centres unmarked) [Donepezil]
- Aβ1–42-induced cognitive dysfunction (Morris water maze) [2]: significantly improved
